Activity calls are given as the source filed them. The calls are words filed in the database; no cut-off is given here.
What was measured:
[1] = Cytotoxicity against human A549 cells assessed as cell growth inhibition after 72 hrs by MTT assay; format: functional, cell-based; conditions: A549, 72 h
[2] = system: LNCaP; test: Inhibition of HDAC in human LNCAP cells assessed as down regulation of COX2 expression at 2 uM after 24 hrs by Western blot analysis; format: cell-based
[3] = system: LNCaP; test: Induction of cell cycle arrest in human LNCAP cells assessed as accumulation at G2 phase at 2.5 uM after 24 hrs by propidium iodide staining based FACS analysis (reference value: 1.08%); format: functional
[4] = Cytotoxicity against African green monkey Vero cells assessed as cell growth inhibition after 72 hrs by MTT assay; format: toxicity, cell-based; conditions: African green monkey (Chlorocebus sabaeus)
[5] = molecular target: T1, Prostaglandin G/H synthase 1 (Ovis aries) (UniProt P05979); test: Inhibition of sheep COX1 at 10 uM using arachidonic acid as substrate preincubated for 15 mins followed by substrate addition for 2 mins by Cayman based fluorescence assay
T1 sequence (whole entry): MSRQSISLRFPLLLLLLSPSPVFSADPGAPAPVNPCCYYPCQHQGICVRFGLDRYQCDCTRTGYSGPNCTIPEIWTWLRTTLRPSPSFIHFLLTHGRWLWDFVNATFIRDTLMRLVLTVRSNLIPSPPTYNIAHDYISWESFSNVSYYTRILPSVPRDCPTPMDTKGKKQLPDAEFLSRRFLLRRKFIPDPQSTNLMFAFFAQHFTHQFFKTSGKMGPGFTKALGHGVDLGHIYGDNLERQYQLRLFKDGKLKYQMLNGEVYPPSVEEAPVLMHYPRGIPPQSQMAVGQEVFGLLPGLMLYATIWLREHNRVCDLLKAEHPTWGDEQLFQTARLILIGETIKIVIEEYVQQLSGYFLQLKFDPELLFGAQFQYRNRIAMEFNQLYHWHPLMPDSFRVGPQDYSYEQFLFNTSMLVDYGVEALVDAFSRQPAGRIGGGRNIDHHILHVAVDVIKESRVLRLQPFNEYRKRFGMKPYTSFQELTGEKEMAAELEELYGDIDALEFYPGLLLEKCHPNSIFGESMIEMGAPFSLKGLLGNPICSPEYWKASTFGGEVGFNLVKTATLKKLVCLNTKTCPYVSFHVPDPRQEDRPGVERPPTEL

[6] = system: LNCaP; test: Induction of cell cycle arrest in human LNCAP cells assessed as accumulation at S phase at 2.5 uM after 24 hrs by propidium iodide staining based FACS analysis (reference value: […]); format: functional
[7] = Cytotoxicity against human HCT116 cells assessed as cell growth inhibition after 72 hrs by MTT assay; format: functional, cell-based; conditions: HCT-116, 72 h
[8] = system: LNCaP; test: Induction of cell cycle arrest in human LNCAP cells assessed as accumulation at greater G2 phase at 2.5 uM after 24 hrs by propidium iodide staining based FACS analysis (reference value: 0.20%); format: functional
[9] = molecular target: T2, Histone deacetylase 8 (Homo sapiens, UniProt Q9BY41); test: Inhibition of HDAC8 (unknown origin) after 2.5 hrs by SAMDI mass spectroscopic analysis
T2 sequence (Q9BY41 whole entry): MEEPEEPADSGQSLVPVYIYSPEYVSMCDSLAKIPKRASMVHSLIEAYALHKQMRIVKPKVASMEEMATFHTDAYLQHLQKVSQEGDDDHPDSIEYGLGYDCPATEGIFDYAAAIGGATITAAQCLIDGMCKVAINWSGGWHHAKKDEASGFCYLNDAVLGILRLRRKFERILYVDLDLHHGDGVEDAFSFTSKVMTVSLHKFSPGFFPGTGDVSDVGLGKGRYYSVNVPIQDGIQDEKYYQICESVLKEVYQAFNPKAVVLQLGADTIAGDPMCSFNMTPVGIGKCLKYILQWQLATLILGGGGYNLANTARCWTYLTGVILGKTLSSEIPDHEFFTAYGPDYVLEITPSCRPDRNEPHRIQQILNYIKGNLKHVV

[10] = system: LNCaP; test: Inhibition of HDAC in human LNCAP cells assessed as down regulation of androgen receptor expression after 24 hrs by Western blot analysis; format: cell-based
[11] = system: LNCaP; test: Induction of cell cycle arrest in human LNCAP cells assessed as accumulation at G1 phase at 2.5 uM after 24 hrs by propidium iodide staining based FACS analysis (reference value: 69.5%); format: functional
[12] = system: LNCaP; test: Inhibition of class 1 HDAC in human LNCAP cells assessed as acetylated histone H4 accumulation after 24 hrs by Western blot analysis; format: cell-based
[13] = Cytotoxicity against human LNCAP cells assessed as cell growth inhibition after 72 hrs by MTT assay; format: functional, cell-based
[14] = system: LNCaP; test: Inhibition of HDAC in human LNCAP cells assessed as down regulation of COX2 expression at 2 to 10 uM after 24 hrs by Western blot analysis; format: cell-based

| inhibition [5] [%] | IC50 [9] [nM] | SMILES | IC50 [1] [nM] | inhibition [2] | Activity [3] [%] | IC50 at 72 h [4] [nM] | Activity [6] [%] | IC50 [7] [nM] | Activity [8] [%] | inhibition [10] | Activity [11] [%] | inhibition [12] | IC50 [13] [nM] | inhibition [14] |
| --- | --- | --- | --- | --- | --- | --- | --- | --- | --- | --- | --- | --- | --- | --- |
| 61.4 | 412 | Cc1ccc(-c2cc(C(F)(F)F)nn2-c2ccc(S(=O)(=O)NCCCCCCC(=O)NO)cc2)cc1 | 8000 | Active | 1.4 | 5530 | 31.7 | 3380 | 1.67 | Dose-dependent effect | 57.4 | Dose-dependent effect | 2190 | – |
| 22.8 | 109 | COc1ccc2c(c1)c(CC(=O)NCCCCCCC(=O)NO)c(C)n2C(=O)c1ccc(Cl)cc1 | – | – | – | – | – | – | 0.35 | – | 62.5 | Dose-dependent effect | – | Active |
